What was measured:
[1] = Stability of gabapentin in presence of different stabilizers and solvents; type: physicochemical; conditions: GBP 9 mg/mL in acetate buffer
Experimental: GBP containing formulations were prepared by dissolving GBP to a concentration of 9 mg/mL in acetate buffer. A first set of samples were tested for assay and impurities after the initial preparation of formulation. Another set of samples were steam sterilized at 121° C. for 15 min and were tested for assay and impurity levels.

[2] = Pharmacokinetics in rats after 15 min IV infusion; conditions: for AUC / Cmax: male, rat, plasma, iv
Experimental: Formulation compositions were prepared by dissolving GBP and/or APAP as indicated in Table 5 and the pH was adjusted to 5.5 using HCl or NaOH.
Blood samples were collected over a 24 h period at which time the rats were exsanguinated and blood collected for Clinical Pathology (Chemistry, Hematology and Coagulation) evaluation. Finally, all animals were necropsied (all exterior and interior cavities and organs were examined) and the site of infusion in the jugular vein, lung, liver and kidney underwent histopathologic evaluation.

[3] = tested on: mouse whole blood (male), red blood cells; experiment: In vitro hemolysis test, mouse blood; conditions: 15 min at 37° C.; for % Hemolysis: Mouse Blood; for interpretation of hemolysis to Red Blood Cells: mouse whole unclotted blood, concentrations tested
Experimental: (§1) APAP and GBP alone or in combination were evaluated in the in vitro hemolysis test using four biologic matrices (mouse, rat, dog and human whole unclotted blood) to determine the hemolytic potential for each on red blood cells.

[4] = tested on: rat whole blood (male), red blood cells; experiment: In vitro hemolysis test, rat blood; conditions: 15 min at 37° C.; for % Hemolysis: Rat Blood; for interpretation of hemolysis to Red Blood Cells: rat whole unclotted blood, concentrations tested
Experimental: as §1

[5] = tested on: beagle dog whole blood (male), red blood cells; experiment: In vitro hemolysis test, dog blood; conditions: 15 min at 37° C.; for % Hemolysis: Dog Blood; for interpretation of hemolysis to Red Blood Cells: dog whole unclotted blood, concentrations tested
Experimental: as §1

[6] = tested on: human (pooled) whole blood, red blood cells; experiment: In vitro hemolysis test, human blood; conditions: 15 min at 37° C.; for % Hemolysis: Human Blood; for interpretation of hemolysis to Red Blood Cells: human whole unclotted blood, concentrations tested
Experimental: as §1

[7] = tested on: motor control; experiment: Mouse RotoRod/Acelerorod test; conditions: mice, 15 minute IV infusion, 10 mg Acetaminophen/mL, 8 mg Gabapentin/mL; 1, 2, 4, 6 h
Experimental: Mouse tail flick test was conducted to evaluate test somatic pain and mouse rotorod/acelorod test evaluated behavioral changes, specifically somnolence or dizziness
In each case a positive control was administered as described below.
Male ICR mice were trained on a RotoRod/Acelerod at a continuous accelerating speed from 4 to 30 rpm/min during a time period of 4 minutes for at least 3 times on day 0. Vehicle or test article at a single dose is administered by intravenous infusion over 15 minutes starting 30 minutes before the test period starts and chlorpromazine (30 mg/kg, PO) was administered by oral gavage 60 minutes before the start of the test period. At 1, 2, 4, and 6 hours after the start of the test the mice are placed on the accelerating rotorod (increasing from 4 to 30 rpm/min during a 4 min period) and the time (seconds) the mouse remained on the rotorod was recorded. One-way ANOVA followed by Dunnett's test is applied for comparison between vehicle control and test article groups. P<0.05 is considered significant.
A baseline was measured before administration of the test agents and at 1, 2, 4 and 6 h post the start of the study. The effect of the compounds was evaluated in the standard RotoRod/Acelerorod test.

[8] = tested on: rats; experiment: Toxicologic profile in rats (clinical pathology, necropsy, histopathology)
[9] = Koshy et al; cited from earlier work

1-(aminomethyl) cyclohexane acetic acid [Gabapentin]
order of stability of GBP in solvents and stabilizers [1]: PVP>Glycine>Lysine>Propylene Glycol>Sorbitol>PEG400>Glycerol>Mannitol>Sodium Oleate>β-cyclodextrin>Deoxychloic Acid>CMC>L-Glutamic Acid
stability of GBP with stabilizer ([1]; PVP at 10 mg/mL): more stable
Gabapentin PK AUC ([2]; 15 min IV infusion): 37,663 ng · h/mL
Gabapentin PK Cmax ([2]; 15 min IV infusion): 20,138 ng/mL
PK profile of GBP ([2]; in the presence of APAP): no change
% Hemolysis ([3]; GBP 2 mg/mL): 0%
% Hemolysis ([3]; GBP 4 mg/mL): 0%
% Hemolysis ([3]; GBP 8 mg/mL): 0%
interpretation of hemolysis to Red Blood Cells [3]: not considered to be hemolytic
% Hemolysis ([4]; GBP 2 mg/mL): 0%
% Hemolysis ([4]; GBP 4 mg/mL): 0%
% Hemolysis ([4]; GBP 8 mg/mL): 0%
interpretation of hemolysis to Red Blood Cells [4]: not considered to be hemolytic
% Hemolysis ([5]; GBP 2 mg/mL): 0%
% Hemolysis ([5]; GBP 4 mg/mL): 0%
% Hemolysis ([5]; GBP 8 mg/mL): 0%
interpretation of hemolysis to Red Blood Cells [5]: not considered to be hemolytic
% Hemolysis ([6]; GBP 2 mg/mL): 0%
% Hemolysis ([6]; GBP 4 mg/mL): 2%
% Hemolysis ([6]; GBP 8 mg/mL): 0%
interpretation of hemolysis to Red Blood Cells [6]: not considered to be hemolytic
decrease in motor control compared to the vehicle control [7]: no statistically significant decrease in motor control
Clinical Pathology (Clinical Chemistry, Hematology or Coagulation Parameters) ([8]; 24 h after 15 minute IV infusion): did not alter the Clinical Pathology
histopathology of tissues compared to vehicle control ([8]; infusion site, lung, liver, kidney): no changes in the histopathology

CC(=O)Nc1ccc(O)cc1 [Acetaminophen]
AUC ([2]; Acetaminophen PK AUC, 15 min IV infusion): 7280 ng·h/mL
Cmax ([2]; Acetaminophen PK Cmax, 15 min IV infusion): 10100 ng/mL
AUC ([2]; Bioequivalent Range (80-125%) AUC, 15 min IV infusion, 80-125% of single-drug value): 5830 to 9110 ng·h/mL
Cmax ([2]; Bioequivalent Range (80-125%) Cmax, 15 min IV infusion, 80-125% of single-drug value): 8110 to 12700 ng/mL
% Hemolysis ([3]; APAP 5 mg/mL): 4%
% Hemolysis ([3]; APAP 10 mg/mL): 4%
interpretation of hemolysis to Red Blood Cells [3]: not considered to be hemolytic
% Hemolysis ([4]; APAP 5 mg/mL): 0%
% Hemolysis ([4]; APAP 10 mg/mL): 0%
interpretation of hemolysis to Red Blood Cells [4]: not considered to be hemolytic
% Hemolysis ([5]; APAP 5 mg/mL): 0%
% Hemolysis ([5]; APAP 10 mg/mL): 5%
interpretation of hemolysis to Red Blood Cells [5]: not considered to be hemolytic
% Hemolysis ([6]; APAP 5 mg/mL): 0%
% Hemolysis ([6]; APAP 10 mg/mL): 0%
interpretation of hemolysis to Red Blood Cells [6]: not considered to be hemolytic
decrease in motor control compared to the vehicle control [7]: no statistically significant decrease in motor control
pH range of minimum hydrolysis of APAP [9]: 5-7

Source: patent US10052296B2, “Formulations for treating pain” (priority 2016, dated 2018)
